Legend:
Assay type in all cases: in vivo
[1] = test system: Echinochloa oryzacola Vasing.; experiment: Test Example 1: herbicidal activity, application before weed generation in submerged conditions (symbol A); conditions: application herbicide amount 320 g/ha
How it was run: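 Paddy pre-emergence test. Formulated emulsion, water-diluted to a predetermined rate, is applied to floodwater on sowing day; rice transplanted at 2.5 leaves. Effect read at 3 weeks on a 0–5 herbicidal-ratio scale.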

[2] = test system: Echinochloa crus-galli var. crus-galli; experiment: Test Example 3: herbicidal effect by foliage application, Wagner pot (symbol H); conditions: application herbicide amount 320 g/ha
How it was run: (§1)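 Plants sown in submerged alluvial soil (water depth 0.1–0.5 cm) in a 25–30 °C greenhouse and grown 14 days. An emulsion of the compound diluted in water to a set herbicide amount was sprayed uniformly on foliage. Effect on each plant scored 3 weeks after application.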

Leptochloa chinensis = experiment: Test Example 3: herbicidal effect by foliage application, Wagner pot (symbol D); conditions: application herbicide amount 320 g/ha
How it was run: as §1

Digitaria ciliaris [3] = experiment: Test Example 4: herbicidal effect by soil treatment (symbol F); conditions: application herbicide amount 320 g/ha
How it was run: (§2)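 Seeds were sown in sterilized diluvial soil, covered with about 1.5 cm of soil, and the soil surface was sprayed with a water-diluted emulsion of the compound at a predetermined rate. Plants grew in a greenhouse at 25° C. to 30° C.; effects were scored visually 3 weeks after application.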

Setaria viridis [4] = experiment: Test Example 4: herbicidal effect by soil treatment (symbol G); conditions: application herbicide amount 320 g/ha
How it was run: as §2

Avena fatua = experiment: Test Example 4: herbicidal effect by soil treatment (symbol I); conditions: application herbicide amount 320 g/ha
How it was run: as §2

Alopecurus myosuroides = experiment: Test Example 4: herbicidal effect by soil treatment (symbol J); conditions: application herbicide amount 320 g/ha
How it was run: as §2

Amaranthus retroflexus = experiment: Test Example 4: herbicidal effect by soil treatment (symbol N); conditions: application herbicide amount 320 g/ha
How it was run: as §2

rapeseed = experiment: Test Example 4: effect on crop by soil treatment (symbol g); conditions: application herbicide amount 320 g/ha
How it was run: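 Steps: fill box with sterilized diluvial soil; sow seed spot-like; cover with ~1.5 cm soil; grow in greenhouse (25° C. to 30° C.).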

Digitaria ciliaris [5] = experiment: Test Example 5: herbicidal effect by foliage application, plastic box (symbol F); conditions: 320 g/ha, 3 weeks after application
How it was run: (§3)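 After sowing into sterilized diluvial soil and growing two weeks under glass at 25° C. to 30° C., seedlings receive a uniform foliar spray of diluted emulsion. Damage is judged visually three weeks on.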

Setaria viridis [6] = experiment: Test Example 5: herbicidal effect by foliage application, plastic box (symbol G); conditions: 320 g/ha, 3 weeks after application
How it was run: as §3

Lolium multiflorum Lam. = experiment: Test Example 5: herbicidal effect by foliage application, plastic box (symbol K); conditions: 320 g/ha, 3 weeks after application
How it was run: as §3

Apera spica-venti = experiment: Test Example 5: herbicidal effect by foliage application, plastic box (symbol L); conditions: 320 g/ha, 3 weeks after application
How it was run: as §3

Abutilon theophrasti = experiment: Test Example 5: herbicidal effect by foliage application, plastic box (symbol M); conditions: 320 g/ha, 3 weeks after application
How it was run: as §3

Chenopodium album = experiment: Test Example 5: herbicidal effect by foliage application, plastic box (symbol O); conditions: 320 g/ha, 3 weeks after application
How it was run: as §3

Stellaria media = experiment: Test Example 5: herbicidal effect by foliage application, plastic box (symbol P); conditions: 320 g/ha, 3 weeks after application
How it was run: as §3

Galium spurium = experiment: Test Example 5: herbicidal effect by foliage application, plastic box (symbol Q); conditions: 320 g/ha, 3 weeks after application
How it was run: as §3

rice plant = experiment: Test Example 5: effect on crop by foliage application, plastic box (symbol b); conditions: 320 g/ha, 3 weeks after application
How it was run: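 Crop and weed seeds sown in spots in sterilized diluvial soil in plastic boxes and covered with about 1.5 cm soil. Plants raised in a greenhouse at 25° C. to 30° C. for foliar application.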

Compound | Herbicidal effect grade, A: Echinochloa oryzacola Vasing. [1] | herbicidal effect on H (Echinochloa crus-galli var. crus-galli), grade 0-5 [2] | herbicidal effect on D (Leptochloa chinensis), grade 0-5 (Leptochloa chinensis) | F: Digitaria ciliaris, herbicidal effect grade (Digitaria ciliaris [5]) | G: Setaria viridis, herbicidal effect grade (Setaria viridis [6]) | K: Lolium multiflorum Lam., herbicidal effect grade (Lolium multiflorum Lam.) | L: Apera spica-venti, herbicidal effect grade (Apera spica-venti) | M: Abutilon theophrasti, herbicidal effect grade (Abutilon theophrasti) | O: Chenopodium album, herbicidal effect grade (Chenopodium album) | P: Stellaria media, herbicidal effect grade (Stellaria media) | Q: Galium spurium, herbicidal effect grade (Galium spurium) | b: directly sowed rice plant, effect on crop grade (rice plant) | F: Digitaria ciliaris, herbicidal effect grade (Digitaria ciliaris [3]) | G: Setaria viridis, herbicidal effect grade (Setaria viridis [4]) | I: Avena fatua, herbicidal effect grade (Avena fatua) | J: Alopecurus myosuroides, herbicidal effect grade (Alopecurus myosuroides) | N: Amaranthus retroflexus, herbicidal effect grade (Amaranthus retroflexus) | g: rapeseed, effect on crop grade (rapeseed) | also measured
C#CCOC1=C(c2c(C)cc(C)cc2C)C(=O)C(CC(C)=NOC)C1 (stereo not drawn) [1-008] | 5 (Herbicidal ratio of 90% or more (almost completely withered)) | 5 (Herbicidal ratio of 90% or more (almost completely withered)) | 5 (Herbicidal ratio of 90% or more (almost completely withered)) | 5 (Herbicidal ratio of 90% or more (almost completely withered)) | 5 (Herbicidal ratio of 90% or more (almost completely withered)) | 5 (Herbicidal ratio of 90% or more (almost completely withered)) | 4 (Herbicidal ratio of 70% or higher and lower than 90%) | 2 (Herbicidal ratio of 20% or higher and lower than 40%) | 0 (Herbicidal ratio of 5% or lower (almost no effect)) | 0 (Herbicidal ratio of 5% or lower (almost no effect)) | 0 (Herbicidal ratio of 5% or lower (almost no effect)) | 4 (Herbicidal ratio of 70% or higher and lower than 90%) |  |  |  |  |  |  | F (Digitaria ciliaris) herbicidal effect grade (Digitaria ciliaris [3]): 5 (Herbicidal ratio of 90% or more (almost completely withered)); G (Setaria viridis) herbicidal effect grade (Setaria viridis [4]): 4 (Herbicidal ratio of 70% or higher and lower than 90%); I (Avena fatua) herbicidal effect grade (Avena fatua): 0 (Herbicidal ratio of 5% or lower (almost no effect)); J (Alopecurus myosuroides) herbicidal effect grade (Alopecurus myosuroides): 5 (Herbicidal ratio of 90% or more (almost completely withered)); N (Amaranthus retroflexus) herbicidal effect grade (Amaranthus retroflexus): 0 (Herbicidal ratio of 5% or lower (almost no effect)); g (rapeseed) effect on crop grade (rapeseed): 0 (Herbicidal ratio of 5% or lower (almost no effect))
COCC(=O)CC1CC(O)=C(c2c(C)cc(C)cc2C)C1=O (stereo not drawn) [2-007] | 3 (Herbicidal ratio of 40% or higher and lower than 70%) | 5 (Herbicidal ratio of 90% or more (almost completely withered)) | 5 (Herbicidal ratio of 90% or more (almost completely withered)) | 1 (Herbicidal ratio of 5% or higher and lower than 20%) | 0 (Herbicidal ratio of 5% or lower (almost no effect)) | 4 (Herbicidal ratio of 70% or higher and lower than 90%) | 3 (Herbicidal ratio of 40% or higher and lower than 70%) | 0 (Herbicidal ratio of 5% or lower (almost no effect)) | 0 (Herbicidal ratio of 5% or lower (almost no effect)) | 2 (Herbicidal ratio of 20% or higher and lower than 40%) | 0 (Herbicidal ratio of 5% or lower (almost no effect)) | 3 (Herbicidal ratio of 40% or higher and lower than 70%) | 5 (Herbicidal ratio of 90% or more (almost completely withered)) | 4 (Herbicidal ratio of 70% or higher and lower than 90%) | 0 (Herbicidal ratio of 5% or lower (almost no effect)) | 3 (Herbicidal ratio of 40% or higher and lower than 70%) | 0 (Herbicidal ratio of 5% or lower (almost no effect)) | 4 (Herbicidal ratio of 70% or higher and lower than 90%) | 
Cc1cc(C)c(C2=C(O)CC(CC(=O)C(C)C)C2=O)c(C)c1 (stereo not drawn) [2-016] | 4 (Herbicidal ratio of 70% or higher and lower than 90%) | 5 (Herbicidal ratio of 90% or more (almost completely withered)) | 5 (Herbicidal ratio of 90% or more (almost completely withered)) | 5 (Herbicidal ratio of 90% or more (almost completely withered)) | 5 (Herbicidal ratio of 90% or more (almost completely withered)) | 5 (Herbicidal ratio of 90% or more (almost completely withered)) | 4 (Herbicidal ratio of 70% or higher and lower than 90%) | 4 (Herbicidal ratio of 70% or higher and lower than 90%) | 0 (Herbicidal ratio of 5% or lower (almost no effect)) | 0 (Herbicidal ratio of 5% or lower (almost no effect)) | 0 (Herbicidal ratio of 5% or lower (almost no effect)) | 5 (Herbicidal ratio of 90% or more (almost completely withered)) | 5 (Herbicidal ratio of 90% or more (almost completely withered)) | 5 (Herbicidal ratio of 90% or more (almost completely withered)) | 0 (Herbicidal ratio of 5% or lower (almost no effect)) | 4 (Herbicidal ratio of 70% or higher and lower than 90%) | 0 (Herbicidal ratio of 5% or lower (almost no effect)) | 2 (Herbicidal ratio of 20% or higher and lower than 40%) | 
CCOC(=O)C(C(=O)C(C)C)C1CC(O)=C(c2c(C)cc(C)cc2C)C1=O (stereo not drawn) [2-009] | 0 (Herbicidal ratio of 5% or lower (almost no effect)) | 3 (Herbicidal ratio of 40% or higher and lower than 70%) | 0 (Herbicidal ratio of 5% or lower (almost no effect)) | 0 (Herbicidal ratio of 5% or lower (almost no effect)) | 0 (Herbicidal ratio of 5% or lower (almost no effect)) | 1 (Herbicidal ratio of 5% or higher and lower than 20%) | 0 (Herbicidal ratio of 5% or lower (almost no effect)) | 0 (Herbicidal ratio of 5% or lower (almost no effect)) | 0 (Herbicidal ratio of 5% or lower (almost no effect)) | 0 (Herbicidal ratio of 5% or lower (almost no effect)) | 0 (Herbicidal ratio of 5% or lower (almost no effect)) | 4 (Herbicidal ratio of 70% or higher and lower than 90%) | 2 (Herbicidal ratio of 20% or higher and lower than 40%) | 0 (Herbicidal ratio of 5% or lower (almost no effect)) | 0 (Herbicidal ratio of 5% or lower (almost no effect)) | 0 (Herbicidal ratio of 5% or lower (almost no effect)) | 0 (Herbicidal ratio of 5% or lower (almost no effect)) | 0 (Herbicidal ratio of 5% or lower (almost no effect)) | 

— patent US11000033B2, “Ketone or oxime compound, and herbicide” (NISSAN CHEMICAL CORPORATION, priority 2014, dated 2021)
